# Entries after “also recorded” stand apart in the source; their conditions may differ.
# Test system: rat model of endotoxin induced uveitis
# Assay: Rat model of endotoxin-induced uveitis (EIU), topical or intravitreal treatment
# Assay type: in vivo, female Lewis rats
# Details: for overall ophthalmic examination score: vs control (BSS) topical
# Experimental: An in vivo study was conducted to assess the efficacy of intravitreal administration of compound I-22 in a rat model of endotoxin induced uveitis, one of the most appropriate models for the study of NIU (Smith et al., 1998) (Toxikon Study 16-04078-N1). Ocular inflammation was induced in female Lewis rats (n=10/group) by a single foot pad injection of LPS (100 μL) (Herbort et al., 1988, Graefe's Arch Clin Exp Ophthalmol. 226:553-558). Compound I-22 (5 mg/mL) was administered intravitreally into each eye (25 μg/eye), or topically to both eyes at 1, 3, 7, 10, and 17 hours post-LPS injection, within one hour of LPS administration. Balanced salt solution (BSS) served as a vehicle control. Retinal exams were performed prior to study start and six and 24 hours following LPS administration and scored using a Combined Draize and McDonald Shadduck scoring system, based on assessments of: retinal vasculopathy and retinal hemorrhage, exudate, and detachment.
# Endotoxin-induced uveitis was created by a single injection of lipopolysaccharide (LPS; 100 μL) into one hind footpad. Ten (10) female Lewis rats per group received control (balanced salt solution, BSS) or test article (compound I-22) topically to both eyes at 1, 3, 7, 10, and 17 hours post-LPS injection. At each dosing time point, two drops (5 μL each, separated by approximately two minutes, for a total of 10 μL/eye/dose) were instilled into each eye of the animals. Ten female Lewis rats per group received control (BSS) or compound I-22 by a single intravitreal injection (IVT) in each eye at one hour post-LPS injection. Each eye received 5 μL of vehicle or test article.
# Animals were anesthetized with isoflurane 1-3.5% for ophthalmic examinations. Both eyes of each animal were evaluated pre-dose using slit-lamp biomicroscopy, and an indirect ophthalmoscope or a surgical microscope, according to the Combined Draize and McDonald-Shadduck Scoring System, and the Ocular Posterior Segment Scoring Scale. All pupils were dilated with 1% tropicamide ophthalmic solution before ocular examination. Only rats showing no signs of eye irritation, ocular defects or preexisting corneal injury were used in the study.
# Ophthalmic examinations were performed on both eyes of each animal approximately six and 24 hours following LPS administration, using slit-lamp biomicroscopy and a surgical microscope or via indirect ophthalmoscopy. Pupils were dilated with 1% Tropicamide Ophthalmic Solution before ophthalmic examinations.
# Quantitative, continuous data from this study were analyzed using one-way ANOVA. Alternative or additional statistical methods were used as necessary.
# In the same study, the efficacy of compound 1-5 was compared to that of compound 1-22. Compound 1-5 was topically administered topically to the eye at hours 1, 3, 7, 10, and 17, after LPS induction, or by a single intravitreal (IVT) injection one hour after LPS induction (n=10 per group), as was compound I-22. Ocular exams were performed 6 and 24 hours after LPS injection. Anterior segments were scored using a combined Draize and McDonald-Shadduck scoring system, and posterior segments were scored using 0 to 1 (vitreous, optic disc, retinal vasculature) and 0 to 4 (retinal and choroidal hemorrhage, exudation, and detachment) scales. Statistical significance from vehicle control was determined by ANOVA, followed by Tukey's post hoc test.
# [1] = intravitreal administration, vs vehicles
smiles,measurement,setting,value
CC(C)(O)c1cc2oc(-c3ccccc3)nc2cc1N [Compound I-22],ocular exam scores,"IVT, vs vehicle",significantly improved
same,sums of the mean retinal examination scores,"IVT, vs vehicle controls (FIG. 2)",significantly reduced
same,Total ocular inflammation,[1],lower
same,anterior chamber inflammation,[1],lower
same,retina-choroid inflammation,[1],lower
same,signs of inflammation in the rat EIU model,overall,reduced
same,response in the EIU model,"overall, I-22 compared with I-5",slightly more positive response
same,ophthalmic examination scores,"single IVT injection (25 μg/eye), approximately six and 24 hours post LPS, vs control IVT",significantly lower
same,ocular exam scores,"topical (TO), 6 hours and 24 hours, vs vehicle",significantly improved
same,Total ocular inflammation score,"topical (TO), vs vehicle",lower
same,anterior chamber inflammation score,"topical (TO), vs vehicle",lower
same,retina-choroid inflammation score,"topical (TO), vs vehicle",lower
same,overall ophthalmic examination score,"topical at 1, 3, 7, 10, 17 h post-LPS, approximately six hours post LPS",significantly lower; also recorded: statistically lower
same,overall ophthalmic examination score,"topical, approximately 24 hours post LPS",significantly lower

# Source: patent US11583529B2, “Treatment of inflammatory disorders” (Aldeyra Therapeutics, Inc., priority 2017, dated 2023)
